Source: US20090274638A1, “COSMETIC USE OF A C-GLYCOSIDE DERIVATIVE IN COMBINATION WITH ASCORBIC ACID” (L'OREAL, priority 2006, published 2009)

System: normal human dermal fibroblasts (NHDF)
Experiment: type I procollagen ELISA assay on culture medium of fibroblasts after 72 hours incubation
Type: cell-based
Conditions: for Procollagen 1 / %/blank: NHDF, 72 hours; for Procollagen 1: DMEM containing 10% FCS, ELISA on culture medium; for %/blank: procollagen 1 relative to blank, DMEM 10% FCS
Experimental: The efficacy of a combination in accordance with the invention is tested by assaying the procollagen 1. To do this, a composition in accordance with the invention is placed in contact with normal human dermal fibroblasts and the whole is left to incubate for 72 hours before assaying.
The C-glycoside derivative used is C-β-D-xylopyranoside-2-hydroxypropane sold under the name Mexoryl® from Chimex. It is in the form of a solution containing 30% by weight of active material in a 60/40 water/1,2-propanediol mixture.
• Normal human dermal fibroblasts (NHDF) (R8PF2), obtained from a mammary plasty • Type: pool PF2, used at the 8th passage • Culture: 37° C., 5% CO2 • Test culture medium: DMEM (Invitrogen 21969035) • L-glutamine 2 mM (Invitrogen 25030024) • Penicillin 50 IU/ml streptomycin 50 μg/ml (Invitrogen 15070063) • 10% Foetal calf serum (v/v, Invitrogen 10270098).
The normal human dermal fibroblasts (R8PF2) are inoculated in whole DMEM medium and preincubated for 24 hours at 37° C. and 5% CO2. At 80% confluence, the culture medium is replaced with DMEM test medium containing 10% FCS with or without (blank) the products or mixtures to be tested or the reference (TGF-β). The cells are then incubated at 37° C. for 72 hours. Each experimental condition was performed in triplicate.
After incubation, the culture media are harvested and the type I procollagen assay is performed on a sample of medium using a specific ELISA assay kit and according to the supplier's instructions (Procollagen Type I C-Peptide EIA Kit, Bio-Whittaker MK101). An MTT viability test is performed on the cell lawns.

Structure (SMILES) | Procollagen 1 (0.01 mg/ml) [ng/mL] | %/blank (0.01 mg/ml) [%] | synthesis of procollagen 1 by the fibroblasts (in words) (tested at 0.01 mg/ml, culturing for 72 hours in DMEM medium containing 10% FCS) | Procollagen 1 (1 mM) [ng/mL] | %/blank (1 mM) [%] | amount of procollagen 1 synthesized by the fibroblasts (in words) (tested at 1 mm, culturing for 72 hours in DMEM medium containing 10% FCS)
O=C1O[C@H]([C@@H](O)CO)C(O)=C1O [Ascorbic acid, ascorbic acid] | 17052 | 887 | significantly increases | – | – | –
CC(O)C[C@@H]1OC[C@@H](O)[C@H](O)[C@H]1O (stereo partly drawn) [C-Glycoside derivative, C-β-D-xylopyranoside-2-hydroxypropane] | – | – | – | 1838 | 96 | does not significantly modify
